This is an account of results in PMC7024175, “In Depth Analysis of Kinase Cross Screening Data to Identify CAMKK2 Inhibitory Scaffolds” (Molecules, 2020).

SMILES strings stand for the structures.

Usually remaining activity stands for what remains of the control signal, in per cent. As a reminder, the IC50 is the midpoint of a concentration-inhibition curve.

The test system of one series is BRD4. To be noted: cited from earlier work.
For series [1], the target named is T1, CAMKK2 (Homo sapiens, UniProt Q96RR4).
T1 construct: made in house
In words: CAMKK2 enzyme assay (radiometric, CaMKKtide). To be noted: for remaining activity at 0.1 µM / remaining activity at 1 µM / remaining activity at 0.01 µM: read-out: PoC (activity remaining). The class given is biochemical.
Method: CAMKK2 activity was determined by measuring the transfer of radiolabeled phosphate from [γ-^32P]-ATP to a synthetic peptide substrate (CaMKKtide) as previously described [49]. Briefly, purified recombinant CAMKK2 (100 pM) was incubated in assay buffer (50 mM HEPES [pH 7.4], 1 mM DTT, 0.02% [v/v] Brij-35) containing 200 μM CaMKKtide (Genscript), 100 μM CaCl2, 1 μM CaM (Sigma-Aldrich, Castle Hill, NSW, Australia) 200 μM [γ-^32P]-ATP (Perkin Elmer, Boston, MA, USA), 5 mM MgCl2 (Sigma-Aldrich, Castle Hill, NSW, Australia) and various concentrations of inhibitors (0–1 μM) in a standard 30 μl assay for 10 min at 30 °C. Reactions were terminated by spotting 15 μl onto P81 phosphocellulose paper (GE Lifesciences, Paramatta, NSW, Australia) and washing extensively in 1% phosphoric acid (Sigma-Aldrich, Castle Hill, NSW, Australia). Radioactivity was quantified by liquid scintillation counting.

Series [2] deals with CAMKK2. To be noted: activity reported in the literature; cited from earlier work.
The conditions of series [3]: HLM, mass spectrometry analysis; cited from earlier work.
The next series has as its target casein kinase 2 (CK2). Further details: method as in earlier work. To be noted: ref 80 (Bain et al.); cited from earlier work.
Another series relates to mice. To be noted: mouse, in vivo; cited from earlier work.
The test system of series [4] is aryl hydrocarbon receptor. Also noted: method as in PMID 18755850. To be noted: cited from earlier work.
For series [5] the following is noted: cited from earlier work.

T1 sequence (Q96RR4 whole entry): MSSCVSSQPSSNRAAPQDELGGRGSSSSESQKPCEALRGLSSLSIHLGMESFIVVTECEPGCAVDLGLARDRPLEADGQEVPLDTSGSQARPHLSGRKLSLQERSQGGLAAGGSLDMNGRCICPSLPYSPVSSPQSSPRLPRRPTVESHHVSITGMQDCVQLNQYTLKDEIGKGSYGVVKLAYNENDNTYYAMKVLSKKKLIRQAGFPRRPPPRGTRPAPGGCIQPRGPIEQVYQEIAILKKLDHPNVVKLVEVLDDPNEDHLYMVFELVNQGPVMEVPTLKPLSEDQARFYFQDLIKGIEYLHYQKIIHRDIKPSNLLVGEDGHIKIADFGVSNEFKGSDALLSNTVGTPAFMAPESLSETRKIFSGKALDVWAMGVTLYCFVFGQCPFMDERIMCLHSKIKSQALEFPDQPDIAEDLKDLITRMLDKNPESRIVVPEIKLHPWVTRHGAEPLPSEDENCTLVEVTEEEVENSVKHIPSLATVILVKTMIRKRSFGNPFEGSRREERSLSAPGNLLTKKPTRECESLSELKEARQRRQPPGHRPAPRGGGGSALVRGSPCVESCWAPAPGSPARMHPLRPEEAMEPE

In the case of `CC[C@@H]1C(=O)N(C)c2cnc(Nc3ccc(C(=O)NC4CCN(C)CC4)cc3OC)nc2N1C1CCCC1` [BI2536], the BRD4 inhibition entry in the series on BRD4 was “potent inhibitor of BRD4”.

As for `O=C(O)c1ccc(-c2c[nH]c3ncc(-c4ccccc4)cc23)cc1C1CCCC1` [GSK650394], on CAMKK2 [1] (0.1 µM inhibitor), the remaining activity at 0.1 µM came to 4%. In addition, the remaining activity at 1 µM on CAMKK2 [1] (1.0 µM inhibitor) is 3%. Further, in the series on CAMKK2 [2], the “pIC50 CAMKK2 reported in the literature” value is listed as 9.2.

Take `O=C(O)c1ccc2c3c1cccc3c(=O)n1c3ccccc3nc21` [STO 609, 7-oxo-7H-benzimidazo[2,1-a]benz[de]isoquinoline-3-carboxylic acid]: the “metabolism on exposure to human liver microsomes” value in series [3] was “metabolized to three mono-hydroxylated byproducts, principally by CYP1A2”. The IC50 at casein kinase 2 (CK2) is 190 nM. In addition, the remaining activity at 0.01 µM at CAMKK2 [1] (0.01 µM inhibitor) is 63%. The remaining activity at 0.1 µM at CAMKK2 [1] (0.1 µM inhibitor) was 56%. Further, the remaining activity at 1 µM on CAMKK2 [1] (1.0 µM inhibitor) was 21%. In addition, the “tolerability, hepatic and renal toxicity” value with mice was “well tolerated in mice without significant hepatic or renal toxicity”. The “aryl hydrocarbon receptor binding/activation” value in series [4] was “binds and activates the aryl hydrocarbon receptor”. The aqueous solubility result in series [5] is listed as “poor aqueous solubility”.

`CNC(=O)c1cc(Oc2ccc(NC(=O)Nc3cc(C(C)(C)C)nn3-c3ccc4ncccc4c3)c(F)c2)ccn1` [Rebasitinib]: the “PoC (activity remaining)” value on CAMKK2 [1] (0.01 µM inhibitor) was 95%; on CAMKK2 [1] (0.1 µM inhibitor), 93%; at CAMKK2 [1] (1.0 µM inhibitor), 81%.

With `COc1cc(N2CCC(N3CCN(C)CC3)CC2)ccc1Nc1ncc(Cl)c(Nc2ccccc2S(=O)(=O)C(C)C)n1` [TAE684], at CAMKK2 [1] (0.01 µM inhibitor), the remaining activity at 0.01 µM amounted to 97%. The remaining activity at 0.1 µM at CAMKK2 [1] (0.1 µM inhibitor) is 87%. Further, the remaining activity at 1 µM on CAMKK2 [1] (1.0 µM inhibitor) was found to be 42%.
